Source: ChEMBL document CHEMBL3868607, “Development of a novel series of non-natural triaryl agonists and antagonists of the Pseudomonas aeruginosa LasR quorum sensing receptor” (Bioorg Med Chem, 2017)
Active and inactive are the calls of the source. The calls are words filed in the database; no cut-off is given here.

Tests used:
[1] = Agonist activity at Pseudomonas aeruginosa GFP-fused LasR expressed in Escherichia coli BL21(DE3) after 4 to 6 hrs by fluorescence assay
Pseudomonas aeruginosa [2] = assay: Agonist activity at Pseudomonas aeruginosa GFP-fused LasR expressed in Escherichia coli BL21(DE3) at 50 uM after 4 to 6 hrs by fluorescence assay relative to 3-oxo-C12 HSL
[3] = Antagonist activity at Pseudomonas aeruginosa GFP-fused LasR expressed in Escherichia coli BL21(DE3) after 4 to 6 hrs by fluorescence assay
Pseudomonas aeruginosa [4] = assay: Antagonist activity at Pseudomonas aeruginosa GFP-fused LasR expressed in Escherichia coli BL21(DE3) at 50 uM after 4 to 6 hrs by fluorescence assay relative to (S)-2-(4-bromophenyl)-N-(2-oxotetrahydrofuran-3-yl) acetamide
Pseudomonas aeruginosa [5] = assay: Irreversible inhibition of Pseudomonas aeruginosa GFP-fused LasR expressed in Escherichia coli BL21(DE3) at 50 uM after 4 to 6 hrs by fluorescence assay
[6] = Antagonist activity at Pseudomonas aeruginosa LasR expressed in Escherichia coli DH5alpha after 4 to 6 hrs by beta-galactosidase reporter gene assay

| EC50 [1] [nM] | Emax (Pseudomonas aeruginosa [2]) [%] | IC50 [3] [nM] | Imax (Pseudomonas aeruginosa [4]) [%] | inhibition (Pseudomonas aeruginosa [5]) | IC50 [6] [nM] | SMILES |
| --- | --- | --- | --- | --- | --- | --- |
| < 50000 | 33 |  |  |  |  | Cc1ccc(C(=O)Oc2c(Br)cc(Br)cc2CC(=O)Nc2ccccc2[N+](=O)[O-])cc1 |
| 1630 | 90 | > 100000 | 0 |  |  | O=C(NCc1cc(Br)cc(Br)c1OC(=O)c1ccccc1Cl)c1ccncn1 |
| 601 | 92 | > 100000 | 0 |  |  | O=C(Cc1cc(Br)cc(Br)c1OC(=O)c1ccccc1Cl)Nc1ccncn1 |
| 0.488 | 31 | > 100000 | 0 |  |  | O=C(NCc1cc(Br)cc(Br)c1OC(=O)c1ccccc1Cl)c1cccnc1 |
| 489 | 37 |  |  |  |  | O=C(Cc1cc(Br)cc(Br)c1OC(=O)c1ccccc1[N+](=O)[O-])Nc1ccccc1[N+](=O)[O-] |
| < 50000 | 0 | 42000 | 122 |  |  | O=C(Cc1cc(Br)cc(Br)c1OC(=O)c1ccccc1Cl)Nc1ccccn1 |
| < 50000 | 39 |  |  |  |  | O=C(Cc1cc(Br)cc(Br)c1OC(=O)c1ccc(F)cc1)Nc1ccccc1[N+](=O)[O-] |
| 161 | 56 |  |  |  |  | O=C(Cc1cc(Br)cc(Br)c1OCc1c(Cl)cccc1Cl)Nc1ccccc1[N+](=O)[O-] |
| 1290 | 76 |  |  |  |  | O=C(Cc1cc(Br)cc(Br)c1OC(=O)c1ccccc1F)Nc1ccccc1[N+](=O)[O-] |
| < 50000 | 24 |  |  |  |  | Cc1cccc(C(=O)Oc2c(Br)cc(Br)cc2CC(=O)Nc2ccccc2[N+](=O)[O-])c1 |
| 45.6 | 116 | > 100000 | 0 |  |  | O=C(Cc1cc(Br)cc(Br)c1OC(=O)c1ccccc1Cl)Nc1cccc(F)c1F |
| 246 | 45 |  |  |  |  | COc1ccccc1C(=O)Oc1c(Br)cc(Br)cc1CC(=O)Nc1ccccc1[N+](=O)[O-] |
|  |  | 76800 | 116 | Active |  | O=C(CCCN1C(=O)C=CC1=O)Oc1c(Br)cc(Br)cc1CNC(=O)c1ccccn1 |
| < 50000 | 0 |  |  |  |  | O=C(Cc1cc(Br)cc(Br)c1OC(=O)c1cccc(Cl)c1)Nc1ccccc1[N+](=O)[O-] |
| < 50000 | 0 |  |  |  |  | O=C(Cc1cc(Br)cc(Br)c1OC(=O)c1ccccc1Cl)Nc1cccc([N+](=O)[O-])c1 |
| > 50000 | 0 | 64500 | 80 |  |  | O=C(Oc1c(Br)cc(Br)cc1CNC(=O)c1cccc(F)c1F)c1ccccc1Cl |
| < 50000 | 0 |  |  |  |  | O=C(Cc1cc(Br)cc(Br)c1OC(=O)c1ccccc1Cl)Nc1ccc([N+](=O)[O-])cc1 |
| 757 | 85 |  |  |  |  | Cc1ccccc1C(=O)Oc1c(Br)cc(Br)cc1CC(=O)Nc1ccccc1[N+](=O)[O-] |

| EC50 [1] [nM] | Emax (Pseudomonas aeruginosa [2]) [%] | IC50 [3] [nM] | Imax (Pseudomonas aeruginosa [4]) [%] | inhibition (Pseudomonas aeruginosa [5]) | IC50 [6] [nM] | SMILES |
| --- | --- | --- | --- | --- | --- | --- |
| < 50000 | 44 |  |  |  |  | O=C(Cc1cc(Br)cc(Br)c1OC(=O)c1cccc(Br)c1)Nc1ccccc1[N+](=O)[O-] |
|  |  | > 100000 | 109 | Active |  | O=C(Cc1cc(Br)cc(Br)c1OC(=O)CCCN1C(=O)C=CC1=O)N[C@H]1CCOC1=O |
| 335 | 89 |  |  |  |  | O=C(Cc1cc(Br)cc(Br)c1OC(=O)c1ccccc1Cl)Nc1cc(F)c(F)cc1[N+](=O)[O-] |
| > 50000 | 0 | 79300 | 105 |  |  | O=C(NCc1cc(Br)cc(Br)c1OC(=O)c1ccccc1Cl)c1ccccn1 |
| 0.896 | 105 |  |  |  |  | O=C(Cc1cc(Br)cc(Br)c1OC(=O)c1ccccc1Cl)N[C@H]1CCOC1=O |
| < 50000 | 0 |  |  |  |  | O=C(Cc1cc(Br)cc(Br)c1OC(=O)c1ccc(Cl)cc1)Nc1ccccc1[N+](=O)[O-] |
| 313 | 95 |  |  |  |  | O=C(Cc1cc(Br)cc(Br)c1OC(=O)c1c(Cl)cccc1Cl)Nc1ccccc1[N+](=O)[O-] |
| < 50000 | 0 |  |  |  |  | O=C(Cc1cc(Br)cc(Br)c1OC(=O)c1ccccc1)Nc1ccccc1[N+](=O)[O-] |
| < 50000 | 35 |  |  |  |  | O=C(Cc1cc(Br)cc(Br)c1OC(=O)c1ccc(Br)cc1)Nc1ccccc1[N+](=O)[O-] |
| 372 | 105 |  |  |  |  | O=C(Cc1cc(Br)cc(Br)c1OC(=O)c1ccccc1Cl)Nc1ccccc1[N+](=O)[O-] |
| 436 | 64 |  |  |  |  | O=C(Cc1cc(Br)cc(Br)c1OC(=O)c1ccc(F)cc1Br)Nc1ccccc1[N+](=O)[O-] |
| 446 | 112 |  |  |  |  | O=C(Cc1cc(Br)cc(Br)c1OC(=O)c1ccccc1Cl)Nc1ccncc1[N+](=O)[O-] |
|  |  |  |  |  | 26300 | O=C(Cc1ccc(Br)cc1)N[C@H]1CCOC1=O |
| 271 | 82 |  |  |  |  | O=C(Cc1cc(Br)cc(Br)c1OC(=O)c1ccccc1Br)Nc1ccccc1[N+](=O)[O-] |
| 1580 | 50 |  |  |  |  | O=C(Cc1cc(Br)cc(Br)c1OC(=O)c1ccccc1I)Nc1ccccc1[N+](=O)[O-] |
| 64700 to 72900 |  |  |  |  |  | CCCCCCCCCC(=O)CC(=O)N[C@H]1CCOC1=O |
|  |  | 23800 | 115 | Active |  | O=C(Cc1cc(Br)cc(Br)c1OC(=O)CCN1C(=O)C=CC1=O)N[C@H]1CCOC1=O |
